The record followed here is PMC8083960, “Kanamycin-Mediated Conformational Dynamics of Escherichia coli Outer Membrane Protein TolC” (Frontiers in Molecular Biosciences, 2021).

The test deals with T1, TolC (Escherichia coli, UniProt P02930).
T1 construct: ~54 kDa by SDS-PAGE and MALDI; crystal structure cited as trimer, 471 residues per monomer
In words: isothermal titration calorimetry. The test is classed as binding. The source says: isothermal titration calorimetry on TolC
For orientation: ITC needs no label: the signal is the heat of the interaction.

T1 sequence (P02930 23-493): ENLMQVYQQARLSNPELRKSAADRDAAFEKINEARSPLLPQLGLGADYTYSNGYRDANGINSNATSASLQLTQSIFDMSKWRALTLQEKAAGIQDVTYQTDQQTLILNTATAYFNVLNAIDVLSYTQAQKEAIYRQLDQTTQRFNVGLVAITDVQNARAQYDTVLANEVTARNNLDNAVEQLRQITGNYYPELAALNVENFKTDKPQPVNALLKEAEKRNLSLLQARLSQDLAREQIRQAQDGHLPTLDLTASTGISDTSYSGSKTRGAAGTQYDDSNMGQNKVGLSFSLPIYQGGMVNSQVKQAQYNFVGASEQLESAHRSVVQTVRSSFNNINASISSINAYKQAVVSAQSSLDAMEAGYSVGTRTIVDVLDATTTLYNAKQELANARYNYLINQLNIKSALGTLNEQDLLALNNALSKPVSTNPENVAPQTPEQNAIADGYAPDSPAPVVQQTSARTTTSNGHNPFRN

Take `NC[C@H]1O[C@H](O[C@H]2[C@H](O)[C@@H](O[C@H]3O[C@H](CO)[C@@H](O)[C@H](N)[C@H]3O)[C@H](N)C[C@@H]2N)[C@H](O)[C@@H](O)[C@@H]1O` [kanamycin]: the affinity, expressed as Kd, was 42.7 µM.
